Assay results reported in patent US7662857B2, “Diagnostic agents for pancreatic exocrine function” (Tokyo Gas Company Limited, priority 2001, dated 2010).

Assays:
[1] = system: pancreatic exocrine function; assay: 13C-dipeptide breath test in normal rats (Δ13C in exhaled CO2 after oral administration); format: in vivo, rat; conditions: for Δ^13C(‰) peak value / Peak time: oral 35 μmol/kg (5 ml/kg); for Δ^13C(‰) peak value: exhaled CO2; for Δ^13C(‰) peak value compared with the peak value of Bz-Ala-(^13C-Ala)-ONa: comparison in words; for Δ^13C(‰) value at 5 min after the administration / Δ^13C(‰) value at 10 min after the administration / Δ^13C(‰) value at 15 min after the administration / Δ^13C(‰) value at 20 min after the administration: normal rats, mean±SD
Experimental: (§1) Overnight-fasted rats (male, Wistar, 8-week old) in the awake state were individually fixed in a rat holder of a microwave irradiation apparatus. The breath was collected at a rate of about 100 to 300 ml/min using a stroke pump (Variable Stroke Pump VS-500; Shibata Kagaku Kogyo), and the CO2 concentration therein was maintained at about 3%. A Perma Pure drier (MD-050-12P; Perma Pure INC.) was set between the rat holder and the stroke pump to remove water vapor from the breath. When the CO2 concentration was stabilized, the rat was temporarily released from the rat holder. A ^13C-labeled dipeptide or a sodium salt thereof each dissolved in distilled water was administered to the stomach of the rat using an oral probe [dose: 35 μmol/kg (5 ml/kg)]. The breath was sampled with a syringe every 5 min until up to 20 min. A 15 ml sample was transferred from the syringe into a vacuum vial (10 ml), sealed and subjected to automated analysis by GC-MS (Breath MAT) [FinniganMAT]. Δ^13C(‰) was calculated from δ^13C values which are ^13C values of a sample (i.e. differences from the standard substance PDB) using the following formula. Δ^13C(‰)=(δ^13C)tmin−((δ^13C)0 min <Breath MAT Measuring Conditions>
Apparatus: Breath MAT plus (Finningan)
Using Ac-Met-(^13C-Ala)-ONa, Z-Met-(^13C-Ala)-ONa, Boc-Met-(^13C-Ala)-ONa or Boc-Phe-(^13C-Ala)-ONa [dose: 35 μmol/kg (5 ml/kg)], ^13C-breath tests were carried out in the same manner as in Example 12. The resultant Δ^13C(‰) peak values were compared with the Δ^13C(‰) peak value in the Bz-Ala-(^13C-Ala)-ONa breath test.
(§2) As in Example 12, Bz-Phe-(^13C-Ala)-ONa [dose: 12.6 mg/kg (35 μmol/kg)], Bz-Gln-(^13C-Ala)-ONa [dose: 12.0 mg/kg (35 μmol/kg)], Bz-Val-(^13C-Ala)-ONa [dose: 11.0 mg/kg (35 μmol/kg)], Bz-Tyr-(^13C-Ala)-ONa [dose: 13.2 mg/kg (35 μmol/kg)], Bz-Met-(^13C-Ala)-ONa [dose: 12.1 mg/kg (35 μmol/kg)], Bz-Ser-(^13C-Ala)-ONa [dose: 10.6 mg/kg (35 μmol/kg)], Bz-Thr-(^13C-Ala)-ONa [dose: 11.0 mg/kg (35 μmol/kg)] or Boc-Phe-(^13C-Ala)-ONa [dose: 8.84 mg/kg (24.6 μmol/kg)] was administered orally to normal rats and chronic pancreatitis rats. Then, the time course of the degree of increase of the ^13C concentration in exhaled CO2 (Δ^13C(‰)) was measured.

[2] = system: pancreatic exocrine function; assay: 13C-dipeptide breath test in chronic pancreatitis rats (oleic acid injected into pancreatic duct); format: in vivo, rat; conditions: mean±SD
Experimental: as §1
Chronic pancreatitis rats were created according to the method of Mundlos et al., Pancreas 1:29 (1986). Oleic acid was injected into the pancreatic duct of 5-week old Wistar male rats. After breeding for 3 weeks, they were used in ^13C-dipeptide breath tests.
as §2

[3] = Table 1, overnight-fasted Wistar rats
[4] = Table 1, overnight-fasted Wistar rats, peak in time course of Δ13C(‰) up to 20 min

Row | Δ^13C(‰) peak value [1, 3] | Peak time [1, 4] [min] | Δ^13C(‰) peak value compared with the peak value of Bz-Ala-(^13C-Ala)-ONa ([1]; rats, oral 35 μmol/kg) | also measured | SMILES
1 | 42.83 ‰ | 15 | – | – | C[C@H](NC(=O)[C@H](CCCNC(=N)N)NC(=O)c1ccccc1)[13C](=O)O [Bz-Arg-(^13C-Ala), reference compound]
2 | 38.57 ‰ | 15 | – | – | C[C@H](NC(=O)[C@H](CCCCN)NC(=O)c1ccccc1)[13C](=O)O [Bz-Lys-(^13C-Ala), reference compound]
3 | – | – | higher | Peak time ([1]; Table 2, rats): 15 min; Δ^13C(‰) peak value ([1]; Table 2, rats): 63.15 ‰ | CSCC[C@H](NC(C)=O)C(=O)N[C@@H](C)[13C](=O)[O-].[Na+] [Na salt of Ac-Met-(^13C-Ala), acetyl-L-methionyl-^13C-L-alanine]
4 | – | – | higher | Peak time ([1]; Table 2, rats): 15 min; Δ^13C(‰) peak value ([1]; Table 2, rats): 55.50 ‰ | CSCC[C@H](NC(=O)OC(C)(C)C)C(=O)N[C@@H](C)[13C](=O)[O-].[Na+] [Na salt of Boc-Met-(^13C-Ala), t-butyloxycarbonyl-L-methionyl-^13C-L-alanine]
5 | – | – | higher | Peak time ([1]; Table 2, rats): 20 min; Δ^13C(‰) peak value ([1]; Table 2, rats): 46.06 ‰; Δ^13C(‰) value at 5 min after the administration ([1]; oral 8.84 mg/kg (24.6 μmol/kg)): 5.02±3.79 ‰; Δ^13C(‰) value at 10 min after the administration ([1]; oral 8.84 mg/kg (24.6 μmol/kg)): 24.36±7.52 ‰; Δ^13C(‰) value at 15 min after the administration ([1]; oral 8.84 mg/kg (24.6 μmol/kg)): 28.13±4.43 ‰; Δ^13C(‰) value at 20 min after the administration ([1]; oral 8.84 mg/kg (24.6 μmol/kg)): 25.09±2.00 ‰; Δ^13C(‰) value at 5 min after the administration ([2]; oral 8.84 mg/kg (24.6 μmol/kg)): 0.74±0.54 ‰; Δ^13C(‰) value at 10 min after the administration ([2]; oral 8.84 mg/kg (24.6 μmol/kg)): 3.43±1.46 ‰; Δ^13C(‰) value at 15 min after the administration ([2]; oral 8.84 mg/kg (24.6 μmol/kg)): 6.36±2.67 ‰; Δ^13C(‰) value at 20 min after the administration ([2]; oral 8.84 mg/kg (24.6 μmol/kg)): 10.16±3.95 ‰ | C[C@H](NC(=O)[C@H](Cc1ccccc1)NC(=O)OC(C)(C)C)[13C](=O)[O-].[Na+] [Na salt of Boc-Phe-(^13C-Ala), t-butyloxycarbonyl-L-phenylalanyl-^13C-L-alanine]
6 | 45.88 ‰ | 10 | – | Peak time ([1]; Table 2, rats): 10 min; Δ^13C(‰) peak value ([1]; Table 2, rats): 45.88 ‰ | C[C@H](NC(=O)c1ccccc1)C(=O)N[C@@H](C)[13C](=O)[O-].[Na+] [Na salt of Bz-Ala-(^13C-Ala), reference compound]
7 | 41.74 ‰ | 15 | – | – | C[C@H](NC(=O)[C@H](CC(N)=O)NC(=O)c1ccccc1)[13C](=O)[O-].[Na+] [Na salt of Bz-Asn-(^13C-Ala), reference compound]
8 | 11.47 ‰ | 20 | – | – | C[C@H](NC(=O)[C@H](CC(=O)O)NC(=O)c1ccccc1)[13C](=O)[O-].[Na+] [Na salt of Bz-Asp-(^13C-Ala), reference compound]
9 | 31.52 ‰ | 10 | – | – | C[C@H](NC(=O)[C@H](CS)NC(=O)c1ccccc1)[13C](=O)[O-].[Na+] [Na salt of Bz-Cys-(^13C-Ala), reference compound]
10 | 54.56 ‰ | 10 | higher | Δ^13C(‰) value at 5 min after the administration ([1]; oral 35 μmol/kg): 13.86±4.98 ‰; Δ^13C(‰) value at 10 min after the administration ([1]; oral 35 μmol/kg): 54.56±14.10 ‰; Δ^13C(‰) value at 15 min after the administration ([1]; oral 35 μmol/kg): 51.27±3.21 ‰; Δ^13C(‰) value at 5 min after the administration ([2]; oral 35 μmol/kg): 3.41±3.44 ‰; Δ^13C(‰) value at 10 min after the administration ([2]; oral 35 μmol/kg): 15.32±13.04 ‰; Δ^13C(‰) value at 15 min after the administration ([2]; oral 35 μmol/kg): 28.06±19.01 ‰ | C[C@H](NC(=O)[C@H](CCC(N)=O)NC(=O)c1ccccc1)[13C](=O)[O-].[Na+] [Na salt of Bz-Gln-(^13C-Ala), N-benzoyl-L-glutaminyl-^13C-L-alanine]
11 | 32.14 ‰ | 20 | – | – | C[C@H](NC(=O)CNC(=O)c1ccccc1)[13C](=O)[O-].[Na+] [Na salt of Bz-Gly-(^13C-Ala), reference compound]
12 | 36.17 ‰ | 20 | – | – | C[C@H](NC(=O)[C@H](Cc1cnc[nH]1)NC(=O)c1ccccc1)[13C](=O)[O-].[Na+] [Na salt of Bz-His-(^13C-Ala), reference compound]
13 | 39.82 ‰ | 20 | – | – | CC[C@H](C)[C@H](NC(=O)c1ccccc1)C(=O)N[C@@H](C)[13C](=O)[O-].[Na+] [Na salt of Bz-Ile-(^13C-Ala), reference compound]
14 | 42.77 ‰ | 15 | – | – | CC(C)C[C@H](NC(=O)c1ccccc1)C(=O)N[C@@H](C)[13C](=O)[O-].[Na+] [Na salt of Bz-Leu-(^13C-Ala), reference compound]
15 | 48.88 ‰ | 10 | higher | Δ^13C(‰) value at 5 min after the administration ([1]; oral 35 μmol/kg): 19.76±10.16 ‰; Δ^13C(‰) value at 10 min after the administration ([1]; oral 35 μmol/kg): 48.88±17.45 ‰; Δ^13C(‰) value at 15 min after the administration ([1]; oral 35 μmol/kg): 45.53±8.00 ‰; Δ^13C(‰) value at 20 min after the administration ([1]; oral 35 μmol/kg): 38.58±3.79 ‰; Δ^13C(‰) value at 5 min after the administration ([2]; oral 35 μmol/kg): 1.52±1.47 ‰; Δ^13C(‰) value at 10 min after the administration ([2]; oral 35 μmol/kg): 7.69±5.15 ‰; Δ^13C(‰) value at 15 min after the administration ([2]; oral 35 μmol/kg): 14.59±8.50 ‰; Δ^13C(‰) value at 20 min after the administration ([2]; oral 35 μmol/kg): 20.25±9.43 ‰ | CSCC[C@H](NC(=O)c1ccccc1)C(=O)N[C@@H](C)[13C](=O)[O-].[Na+] [Na salt of Bz-Met-(^13C-Ala), N-benzoyl-L-methionyl-^13C-L-alanine]
16 | 39.76 ‰ | 15 | – | – | C[C@H](NC(=O)[C@H](Cc1c[nH]c2ccccc12)NC(=O)c1ccccc1)[13C](=O)[O-].[Na+] [Na salt of Bz-Trp-(^13C-Ala), reference compound]
17 | – | – | higher | Peak time ([1]; Table 2, rats): 15 min; Δ^13C(‰) peak value ([1]; Table 2, rats): 48.71 ‰ | CSCC[C@H](NC(=O)OCc1ccccc1)C(=O)N[C@@H](C)[13C](=O)[O-].[Na+] [Na salt of Z-Met-(^13C-Ala), benzyloxycarbonyl-L-methionyl-^13C-L-alanine]
